Experimental data from US10882871B2, “18/19F-labelled compounds which target the prostate specific membrane antigen” (BRITISH COLUMBIA CANCER AGENCY BRANCH, priority 2016, dated 2021).
Values joined by “and” are separate entries in the source; they are usually repeats but may differ in a detail not shown here. Identical values can stand only once.

System: tumors derived from LNCaP cells
Test: PET/CT imaging and biodistribution of F-18 labeled HTK-01069 and HTK-01070 in tumor-bearing mice
Assay type: in vivo, mouse (NODSCID 1L2RγKO male mice)
Method: LNCap cell line used in the tumor model was obtained commercially from ATTC (LNCaP clone FGC, CRL-1740). It was established from a metastatic site of left supraclavicular lymph node of human prostatic adenocarcinoma. Cells were cultured in PRMI 1640 (StemCell Technologies, Vancouver, BC) supplemented by 10% FBS, 100 U/mL penicillin and 100 μg/mL streptomycin at 37° C. in a humidified incubator containing 5% CO2. Cells grown to 80-90% confluence were then washed with sterile phosphate-buffered saline (1×PBS pH 7.4) and trypsinization. The collected cells number was counted with Hemacytometer (Hausser Scientific).
Tumor implantation: Imaging and biodistribution experiments were performed using NODSCID 1L2RγKO male mice. Three or four mice in each cage equipped with enrichments. The mice were maintained and the experiments were conducted in according to the guidelines established by Canadian Council on Animal Care and approved by Animal Ethics Committee of the University of British Columbia. Mice were housed under pathogen-free conditions and kept on twelve hours light and twelve hours dark cycle in the Animal Research Centre, British Columbia Cancer Research Centre, Vancouver, Canada.
Mice were anesthetized by inhalation with 2.5% isoflurane in 2.0 L/min of oxygen during cells implantation. Mice were implanted subcutaneously with 1×10^7 LNCaP cells behind left shoulder. Mice were imaged or used in biodistribution studies when the tumor grew up to reach 5-8 mm in diameter during 5-6 weeks.
PET/CT Imaging: PET imaging experiments were conducted using Siemens inveon micro PET/CT scanner. Each tumor bearing mouse was injected ˜6.44 MBq of F-18 labeled HTK-01069 and ˜7.08 MBq of F-18 labeled HTK-01070 through the tail vein under anesthesia. After one hour, the mice were sedated again with 2% isoflurane inhalation and positioned in the scanner. Static PET imaging was performed to determined activity uptake of tumor and other organs. A CT scan was obtained for localization and attenuation correction after segmentation for reconstructing the PET images. The data was acquired by scanning the mice for 10 minutes each. The mice were kept warm by a heating pad during acquisition. The mice were euthanized after imaging and followed by biodistribution. Please see FIGS. 2 and 3 of this specification for reconstructed PET images for 1L2RγKO mice injected with HTK-01069 and HTK-01070 respectively.
Blood was withdrawn immediately, and the organs of interest were quickly removed. Each organ was weighed and the tissue radioactivity was measured with a Cobra II gamma counter (Packard), normalized to the injected dose using a standard curve and expressed as the percentage of the injected dose per gram of tissue (% ID/g). Biodistribution data are shown for HTK-01069 in Tables 5, 6 and 7 and HTK-01070 in Tables 8, 9, 10 of the specification respectively.

[1] = 1 h p.i. with co-injection of 0.5 mg DCFPyL, Avg
[2] = 1 h p.i. with co-injection of 0.5 mg DCFPyL, single mice

Biodistribution Adrenals [1]: 0.20 % ID/g
Biodistribution Blood [1]: 0.46 % ID/g
Biodistribution Bone [1]: 0.12 % ID/g
Biodistribution Brain [1]: 0.02 % ID/g
Biodistribution Fat [1]: 0.04 % ID/g
Biodistribution Heart [1]: 0.22 % ID/g
Biodistribution Intestine [1]: 0.31 % ID/g
Biodistribution Kidney [1]: 2.11 % ID/g
Biodistribution Liver [1]: 0.06 % ID/g
Biodistribution Lung [1]: 0.09 % ID/g
Biodistribution Muscle [1]: 0.30 % ID/g
Biodistribution Pancreas [1]: 1.76 % ID/g
Biodistribution Seminal [1]: 1.87 % ID/g
Biodistribution Spleen [1]: 0.06 % ID/g
Biodistribution Stomach [1]: 0.09 % ID/g
Biodistribution Tail [1]: 0.38 % ID/g
Biodistribution Testes [1]: 0.08 % ID/g
Biodistribution Tumour [1]: 0.27 % ID/g
Biodistribution Brain [2]: 0.02 % ID/g
Biodistribution Spleen [2]: 0.06 % ID/g and 0.05 % ID/g
Biodistribution Adrenals (1 h p.i., Avg): 4.65 % ID/g
Biodistribution Blood (1 h p.i., Avg): 0.52 % ID/g
Biodistribution Bone (1 h p.i., Avg): 0.44 % ID/g
Biodistribution Brain (1 h p.i., Avg): 0.04 % ID/g
Biodistribution Fat (1 h p.i., Avg): 0.73 % ID/g
Biodistribution Heart (1 h p.i., Avg): 0.33 % ID/g
Biodistribution Intestine (1 h p.i., Avg): 0.33 % ID/g
Biodistribution Kidney (1 h p.i., Avg): 71.70 % ID/g
Biodistribution Liver (1 h p.i., Avg): 1.69 % ID/g
Biodistribution Lung (1 h p.i., Avg): 1.39 % ID/g
Biodistribution Muscle (1 h p.i., Avg): 0.23 % ID/g
Biodistribution Pancreas (1 h p.i., Avg): 0.33 % ID/g
Biodistribution Seminal (1 h p.i., Avg): 3.13 % ID/g
Biodistribution Spleen (1 h p.i., Avg): 5.01 % ID/g
Biodistribution Stomach (1 h p.i., Avg): 0.10 % ID/g
Biodistribution Tail (1 h p.i., Avg): 0.76 % ID/g
Biodistribution Testes (1 h p.i., Avg): 0.67 % ID/g
Biodistribution Tumour (1 h p.i., Avg): 8.28 % ID/g
Biodistribution Adrenals (2 h p.i., Avg): 1.79 % ID/g
Biodistribution Blood (2 h p.i., Avg): 0.16 % ID/g
Biodistribution Bone (2 h p.i., Avg): 0.10 % ID/g
Biodistribution Brain (2 h p.i., Avg): 0.02 % ID/g
Biodistribution Fat (2 h p.i., Avg): 0.38 % ID/g
Biodistribution Heart (2 h p.i., Avg): 0.47 % ID/g
Biodistribution Intestine (2 h p.i., Avg): 0.25 % ID/g
Biodistribution Kidney (2 h p.i., Avg): 42.78 % ID/g
Biodistribution Liver (2 h p.i., Avg): 0.05 % ID/g
Biodistribution Lung (2 h p.i., Avg): 0.09 % ID/g
Biodistribution Muscle (2 h p.i., Avg): 0.35 % ID/g
Biodistribution Pancreas (2 h p.i., Avg): 1.50 % ID/g
Biodistribution Seminal (2 h p.i., Avg): 6.41 % ID/g
Biodistribution Spleen (2 h p.i., Avg): 0.17 % ID/g
Biodistribution Stomach (2 h p.i., Avg): 1.30 % ID/g
Biodistribution Tail (2 h p.i., Avg): 0.56 % ID/g
Biodistribution Testes (2 h p.i., Avg): 0.28 % ID/g
Biodistribution Tumour (2 h p.i., Avg): 6.84 % ID/g
Biodistribution Brain (2 h p.i., single mice): 0.02 % ID/g and 0.03 % ID/g
SMILES: C[N+](C)(Cc1cn(Cc2ccc(C(=O)NCCCC[C@H](NC(=O)N[C@@H](CCC(=O)O)C(=O)O)C(=O)O)cc2)nn1)C[B-](F)(F)[18F] [F-18 HTK-01070]
Biodistribution Adrenals [2]: 0.23 % ID/g and 0.26 % ID/g and 0.17 % ID/g and 0.16 % ID/g
Biodistribution Heart [2]: 0.21 % ID/g and 0.27 % ID/g and 0.20 % ID/g and 0.19 % ID/g
Biodistribution Intestine [2]: 0.31 % ID/g and 0.30 % ID/g and 0.28 % ID/g and 0.32 % ID/g
Biodistribution Kidney [2]: 2.40 % ID/g and 2.05 % ID/g and 1.96 % ID/g
Biodistribution Liver [2]: 0.06 % ID/g and 0.08 % ID/g and 0.07 % ID/g and 0.05 % ID/g
Biodistribution Lung [2]: 0.11 % ID/g and 0.10 % ID/g and 0.07 % ID/g and 0.08 % ID/g
Biodistribution Muscle [2]: 0.31 % ID/g and 0.38 % ID/g and 0.23 % ID/g and 0.29 % ID/g
Biodistribution Pancreas [2]: 1.92 % ID/g and 1.65 % ID/g and 1.88 % ID/g and 1.57 % ID/g
Biodistribution Stomach [2]: 0.09 % ID/g and 0.14 % ID/g and 0.07 % ID/g
Biodistribution Tail [2]: 0.45 % ID/g and 0.35 % ID/g and 0.36 % ID/g
Biodistribution Testes [2]: 0.09 % ID/g and 0.10 % ID/g and 0.06 % ID/g
Biodistribution Tumour [2]: 0.35 % ID/g and 0.26 % ID/g and 0.21 % ID/g
Biodistribution Blood (1 h p.i., single mice): 0.46 % ID/g and 0.63 % ID/g and 0.50 % ID/g and 0.51 % ID/g
Biodistribution Bone (1 h p.i., single mice): 0.37 % ID/g and 0.33 % ID/g and 0.58 % ID/g and 0.52 % ID/g and 0.38 % ID/g and 0.45 % ID/g
Biodistribution Brain (1 h p.i., single mice): 0.03 % ID/g and 0.04 % ID/g and 0.05 % ID/g
Biodistribution Heart (1 h p.i., single mice): 0.36 % ID/g and 0.47 % ID/g and 0.37 % ID/g and 0.27 % ID/g and 0.24 % ID/g and 0.28 % ID/g
Biodistribution Intestine (1 h p.i., single mice): 0.26 % ID/g and 0.32 % ID/g and 0.42 % ID/g and 0.37 % ID/g and 0.31 % ID/g
Biodistribution Kidney (1 h p.i., single mice): 62.45 % ID/g and 54.11 % ID/g and 52.66 % ID/g and 91.10 % ID/g and 76.59 % ID/g and 93.32 % ID/g
Biodistribution Liver (1 h p.i., single mice): 1.51 % ID/g and 1.53 % ID/g and 1.65 % ID/g and 1.90 % ID/g and 1.60 % ID/g and 1.94 % ID/g
Biodistribution Lung (1 h p.i., single mice): 1.32 % ID/g and 1.35 % ID/g and 1.24 % ID/g and 1.21 % ID/g and 1.59 % ID/g and 1.61 % ID/g
Biodistribution Muscle (1 h p.i., single mice): 0.28 % ID/g and 0.21 % ID/g and 0.24 % ID/g and 0.17 % ID/g and 0.25 % ID/g and 0.22 % ID/g
Biodistribution Pancreas (1 h p.i., single mice): 0.30 % ID/g and 0.33 % ID/g and 0.35 % ID/g and 0.28 % ID/g and 0.32 % ID/g and 0.41 % ID/g
Biodistribution Spleen (1 h p.i., single mice): 5.58 % ID/g and 4.75 % ID/g and 5.97 % ID/g and 4.51 % ID/g and 4.95 % ID/g and 4.31 % ID/g
Biodistribution Stomach (1 h p.i., single mice): 0.08 % ID/g and 0.09 % ID/g and 0.10 % ID/g and 0.16 % ID/g and 0.12 % ID/g
Biodistribution Testes (1 h p.i., single mice): 0.94 % ID/g and 0.79 % ID/g and 0.49 % ID/g and 0.57 % ID/g and 0.58 % ID/g and 0.64 % ID/g
Biodistribution Tumour (1 h p.i., single mice): 7.56 % ID/g and 10.45 % ID/g and 8.06 % ID/g and 8.60 % ID/g and 8.31 % ID/g and 6.70 % ID/g
Biodistribution Heart (2 h p.i., single mice): 0.32 % ID/g and 0.58 % ID/g and 0.55 % ID/g and 0.44 % ID/g and 0.46 % ID/g
Biodistribution Intestine (2 h p.i., single mice): 0.21 % ID/g and 0.23 % ID/g and 0.26 % ID/g and 0.24 % ID/g and 0.32 % ID/g
Biodistribution Liver (2 h p.i., single mice): 0.04 % ID/g and 0.06 % ID/g and 0.05 % ID/g and 0.07 % ID/g
Biodistribution Muscle (2 h p.i., single mice): 0.31 % ID/g and 0.39 % ID/g and 0.27 % ID/g and 0.33 % ID/g and 0.44 % ID/g
Biodistribution Pancreas (2 h p.i., single mice): 1.30 % ID/g and 1.76 % ID/g and 1.41 % ID/g and 1.23 % ID/g and 1.80 % ID/g
Biodistribution Testes (2 h p.i., single mice): 0.23 % ID/g and 0.34 % ID/g and 0.26 % ID/g and 0.19 % ID/g and 0.36 % ID/g
Biodistribution Tumour (2 h p.i., single mice): 6.12 % ID/g and 6.47 % ID/g and 7.93 % ID/g
